Results as given in ChEMBL document CHEMBL1124056, “Derivatives of the muscarinic agent N-methyl-N-(1-methyl-4-pyrrolidino-2-butynyl)acetamide” (J Med Chem, 1988).

Tests used:
[1] = target: Muscarinic acetylcholine receptor; test: Equilibrium dissociation constant muscarinic receptor complex, measured in guinea pig ileum; assay type: functional, tissue-based, Cavia porcellus
[2] = species: Cavia porcellus; test: Maximum contractile response relative to that elicited by carbachol, in guinea pig ileum; assay type: functional
[3] = species: Mus musculus; test: Dose required to double the dose of oxotremorine inducing a predetermined (grade 2) tremor intensity in mice; assay type: functional
[4] = species: Cavia porcellus; test: Concentration that elicits 50% of its own maximum contractile response, in guinea pig ileum; assay type: functional
[5] = species: Cavia porcellus; test: Efficacy relative to that of carbachol, measured in guinea pig ileum; assay type: functional
[6] = species: Cavia porcellus; test: Equipotent molar ratio relative to that of carbachol, which equals 1, in guinea pig ileum; assay type: functional
[7] = species: Mus musculus; test: Dose required to double the dose of oxotremorine inducing a predetermined (grade 2) tremor intensity in mice; g=Agonist; assay type: functional, organism-based; conditions: filed as agonist

Structure (SMILES)	Kd [1]	Emax [2]	Tremorolytic dose [3]	EC50 [4]	Relative efficacy [5]	EPMR [6]	Tremorolytic dose [7]
CC(=O)N(CC#CCN1CCCC1)C(C)=O	0.44 µM	0	2.9 µM/kg				
CN(CC#CCN1CCCC1)C(=O)C(F)(F)F	15.6 µM	0.16	150 µM/kg	16.9 µM	0.003	145	
CN(CC#CCN1CCCC1)S(C)(=O)=O	68 µM		174 µM/kg				
CC(C#CCN1CCCC1)N(C)C(=O)C(F)(F)F (configuration not stated)	0.57 µM	0	21.4 µM/kg				
CC(C#CC[N+](C)(C)C)N(C)C(=O)C(F)(F)F (configuration not stated)	91.9 µM	0.89		27.1 µM	0.026	214	
C[N+](C)(C)CCOC(N)=O.[Cl-] [CARBACHOL]		1		0.11 µM		1	
CC(=O)N(CC#CCN1CCCC1)S(C)(=O)=O	17.9 µM		>200 µM/kg				
CC(=O)N(C(C)=O)C(C)C#CC[N+](C)(C)C (configuration not stated)	8.6 µM	1.01		1.2 µM	0.055	10.7	
O=C1CCC(=O)N1CC#CCN1CCCC1	5 µM	0.98	23 µM/kg	1 µM	0.027		
CC(=O)N(C(C)=O)C(C)C#CCN(C)C (configuration not stated)	21.6 µM	0.99	109 µM/kg	5.5 µM	0.03	57.9	
CS(=O)(=O)N(CC#CCN1CCCC1)S(C)(=O)=O	15.9 µM		>200 µM/kg				
CC(=O)N(CC#CCN(C)C)C(C)=O	65.6 µM	0.84	>200 µM/kg	38.8 µM	0.013	320	
CC(=O)N(C)C(C)C#CCN1CCCC1 (configuration not stated)	0.24 µM	0.83	0.6 µM/kg	0.19 µM	0.013		
CC(=O)N(C)CC#CCN1CCCC1	2.2 µM	1.01		0.069 µM	0.15		
CN(C)CC#CCN1C(=O)CCC1=O	208 µM	1.01		2.5 µM	0.35		Agonist
CC(=O)N(C(C)C#CCN1CCCC1)S(C)(=O)=O (configuration not stated)	3.1 µM		99.7 µM/kg				
CCN(CC)CC#CCN(C(C)=O)C(C)=O	7.2 µM	0	107 µM/kg				
CC(C#CCN1CCCC1)N1C(=O)CCC1=O (configuration not stated)	0.15 µM		1.2 µM/kg				
CC(=O)N(CC#CC[N+](C)(C)C)C(C)=O	8.2 µM	1		2 µM	0.034	19.3	
CC(=O)N(C(C)=O)C(C)C#CCN1CCCC1 (configuration not stated)	0.28 µM	0	3.2 µM/kg				
CCN(CC)CC#CC(C)N(C(C)=O)C(C)=O (configuration not stated)	1.6 µM	0	39 µM/kg				
CC(C#CCN(C)C)N(C)C(=O)C(F)(F)F (configuration not stated)	95.4 µM	<0.1	>200 µM/kg				
CC(C#CCN1CCCC1)N(C)S(C)(=O)=O (configuration not stated)	13 µM		82 µM/kg				
CC(C#CCN1CCCC1)N(S(C)(=O)=O)S(C)(=O)=O (configuration not stated)	5.4 µM		157 µM/kg				
